The source of these data is patent US20140303246A1, “USE OF ADAMANTANE DERIVATIVES FOR THE TREATMENT OF ACTINIC KERATOSIS” (MERZ Pharma GmbH & Co. KGaA, priority 2011, published 2014).

One series concerns NHEK cells. The series is described as follows: Release of cytoplasmatic lactate dehydrogenase (LDH) to monitor cell death / membrane damage. Format: cell-based, human. The protocol: (§1) For each of these compounds, the same experiments were performed in an analogous fashion to the compound of Example 1 except that the test items were prepared in separate plates starting with the double concentrated maximal test concentration followed by a 1:3 serial dilution and then added to the cells. The test items were tested at 6 replicates/concentration. In addition to metabolic activity also the release of cytoplasmatic-lactate dehydrogenase (LDH) was used to monitor cell death. Early release (after 6 hrs) indicate membrane damage a primary mode of action

Series [1] has as its system primary human epidermal keratinocytes (NHEK). The experiment in a line: Resazurin assay, viability of cells by metabolic activity. The series is classed as cell-based. The protocol:
(§2) By using primary human epidermal keratinocytes (NHEK, FIG. 1) the cytolytic potential of several drug compound was investigated.
(§3) The viability of the cells was monitored by their metabolic activity using the Resazurin—assay. Eight different concentrations (up to 1 mM) of amantadine were investigated. Viability of the cells was plotted against the different concentration of test compound.
(§4) From the resulting sigmoid-curve the IC50 value for the cytolytic effect was determined and given in the respective figure. FIG. 1 depicts the relative viability vs. the concentration on NHEK cells using metabolic activity as read-out.
as §1
On the technique in general: Alamar Blue is a resazurin reagent that responds to reducing activity.

Assay in series [2]: as above
Format: cell-based. The following applies: human, primary human epidermal keratinocytes (NHEK), metabolic activity (Resazurin) as read-out, read-out: IC50 for the cytolytic/cytotoxic effect based on metabolic activity. The protocol:
as §2, §3, §4, §1

On to `CC12CC3CC(C)(C1)CC(N)(C3)C2` [Memantine, 3,5-dimethyladamantan-1-amine], for which, in the series with NHEK cells, the “LDH-release at 6 hrs (early membrane damage)” value was “early membrane damage”. In series [1], the “cytotoxic effect (in words)” value is on record as “clear cytotoxic activity”. The IC50 in series [2] is 330 µM.
With `CC(N)C12CC3CC(CC(C3)C1)C2` (stereo not shown) [Rimantadine, 1-(1-adamantyl)ethanamine], in series [2], the IC50 was 660 µM.
